Results on two compounds are retold here after patent US5824657A, “Aminoacyl sulfamides for the treatment of hyperproliferative disorders” (priority 1997, dated 1998).

Data set [1] relates to aminoacyl-tRNA synthetases (aaRS) isolated from HeLa cells. The experiment in a line: IC50 determination, aaRS charging and trichloroacetic acid precipitation assay, aaRS partially purified from HeLa cell extracts. The note with it: preincubation 20 minutes at 25° C., reaction 5-20 minutes. Format: biochemical. As for the experimental part: IC50 determinations for the aminoacyl-tRNA synthetases (aaRS) isolated from HeLa cells were carried out using a modification of the aaRS charging and trichloroacetic acid precipitation assay described previously (see examples: D. Kern et. al., Biochemie, 61, 1257-1272 (1979) and J. Gilbart et. al. Antimicrobial Agents and Chemotherapy, 37(1), 32-38 (1993)). […] For practical purposes, the minimal acceptable value is approximately 2000 cpm per 10 minute reaction. The final dilution of the HeLa extract in the assays for the aaRS enzymes varies from 50 to 1200-fold.
Test compounds were typically present as serial dilutions in concentrations ranging from 0.35 nM to 35 μM. Test compound solutions were prepared by dissolving test compounds in 100% dimethyl sulfoxide and diluting to the final concentration with 50 mM HEPES, pH 7.5. IC50 determinations were typically performed in duplicate with each experiment containing 4-8 concentrations of test compound and with duplicate controls containing no inhibitor.
The reaction was incubated at 25° C. for 5-20 minutes. At specified time points a 15 microliter aliquot was removed and added to a well of a Millipore filtration plate (Multiscreen-FB, MAFB NOB 10) containing 100 microliters of cold 5% (wt/vol) trichloroacetic acid. Trichloroacitic acid precipitable material was collected by filtration on a Millipore Multiscreen filtration station, washed twice with cold 5% trichloroacetic acid, twice with water, and dried. Plates were typically allowed to air dry for several hours or baked at 50° C. in a vacuum oven for 30 minutes. The radioactivity on the dried plates was quantitated by the addition of Packard Microscint-20 to the wells and counting with a Packard TopCount scintillation counter.
Inhibitor activity typically was reported as a percentage of the control aaRS activity. […] The IC50 (in nM, Hela Cells) values of representative compounds of the present invention are listed in column 5 of Table I.

In data set [2] the test system is human epidermoid carcinoma cell line A-253 (ATCC HTB 41). As to the kind of experiment: MTT assay, human epidermoid carcinoma cell line. Format: cell-based. The following applies: A253, MTT assay, exposure 72 hours, plot extended by eye for compounds active at lowest dose, read-out: IC50 Human Epidermoid Carcinoma Cells ATCC # HTB 41. The protocol:
The MTT assay was used as a model to measure the inhibitory effects of the compounds of Formula I. The MTT assay is considered the most convenient modern assay for the determination of cell viability and cell proliferation. An MTT assay kit is commercially available (Chemicon International Inc., Temecula, Calif.). The MTT assay was performed according to manufacturer's instructions as outlined below.
A human epidermoid carcinoma cell line, designated as A-253 (ATCC HTB 41), was obtained in frozen vials from the American Type Culture Collection, Rockville, Md. Monolayer cultures were established from the vials by growth in RPMI 1640 medium supplemented with 10% fetal bovine serum (heat-inactivated), 2 mM L-glutamine, and pen-strep (100 units/ml; 100 μg/ml). The cultures were incubated at 37±1.5° C. in 5±1% CO2 in humidified air and were passaged weekly to avoid overgrowth. The laboratory cultures used for the present study were at passage seven after receipt of frozen stocks from ATCC.
Compounds of Formula I in powder form were stored at room temperature in plastic micro centrifuge tubes. Each tube was placed in a plastic bag containing desiccant. Each test compound was prepared as a 2 mg/ml solution in RPMI 1640 medium (non-supplemented) on the day of use, and the appropriate dilutions were prepared with the same vehicle.
Each compound was handled by sterile techniques in Class II, Type B biological safety cabinets.
The reference control compound was methotrexate at concentrations of 0.5 μg/ml to 50 μg/ml. A 1 mg/ml stock was prepared on the day of dosing and diluted to the appropriate concentrations using RPMI 1640 medium (non-supplemented).
A blank control was included in the MTT assay in order to determine the absorbance associated with the absence of any cells. This control was RPMI 1640 culture medium carried through the same procedures used to culture the cells in the microwell plates and to conduct the MTT assay color development. The microwell plate reader was zeroed against the blank control prior to recording the absorbance in the test wells.
Laboratory monolayer cultures of A-253 cells were trypsinized and seeded at a concentration of 24,000 cells in 0.05 ml of complete RPMI 1640 culture medium per well in 96-well plates. Eight wells in a column were seeded for each test condition. The blank control was prepared by adding 0.05 ml of culture medium (no cells) to 8 wells in the first column of each plate. A separate microwell plate was used for each compound of Formula I.
The test compound treatments were initiated immediately after seeding the cells by adding 0.05 ml of treatment medium to each microwell. Ten different test compound concentrations were prepared in culture medium (without serum), and each concentration was applied to a volume of eight wells on the appropriate plate. The final concentrations in the wells were 1000, 500, 250, 100, 50, 25, 10, 5, 2.5, and 1 μg/ml.
An untreated (zero-dose) condition was included as a column of 8 wells on each plate. The zero-dose and blank control wells received 0.05 ml of culture medium (without serum). The microwell plates were placed in an incubator at 37±1.5° C. in 5% CO2 in humidified air for an exposure period of 72±0.5 hours.
After the exposure period, 0.1 ml of MTT dye solution (0.5 mg/ml in serum free RPMI 1640 medium) was added to each micowell. The cultures were returned to the incubator for 2±0.1 hours. Then the medium was removed from each well and placed into a clean microwell plate for temporary storage. A volume of 0.1 ml of color development solution (Solution C, isopropanol with 0.04M HCl, Chemicon MTT Assay kit, Chemicon International Inc., Temecula, Calif.) was added to each new microwell. The contents were carefully mixed and allowed to sit at room temperature for approximately 1 hour. The medium that was saved from each microwell then was pipetted back into the well from which it originally came. […]

The test system of data set [3] is normal human skin fibroblasts cell line ATCC CRL 1501. The experiment in a line: MTT assay, normal skin fibroblasts. Type of data set: cell-based. The note with it: Skin fibroblast, similar manner to HTB 41 assay.
Method: The MTT assay was used as a model to measure the inhibitory effects of the compounds of Formula I. The MTT assay is considered the most convenient modern assay for the determination of cell viability and cell proliferation. […] The MTT assay was performed according to manufacturer's instructions as outlined below.
The cultures were returned to the incubator for 2±0.1 hours. Then the medium was removed from each well and placed into a clean microwell plate for temporary storage. A volume of 0.1 ml of color development solution (Solution C, isopropanol with 0.04M HCl, Chemicon MTT Assay kit, Chemicon International Inc., Temecula, Calif.) was added to each new microwell. […] The absorbance at 540 nm wavelength was determined in a microwell plate reader within two hours of the final preparation of the plates.
The absorbance at 540 nm was recorded for each well by the microwell plate reader after the instrument was zeroed against the blank controls for each plate. The mean absorbance for each test condition was calculated and compared to the mean absorbance for the zero-dose wells in order to obtain percent values. […]
Data set [4] is classed as in vitro ADME, human. As for the experimental part:
Five formulations of Compound XIV were prepared for in vitro study. The formulations are represented in Table III
Franz static diffusion chambers were filled with a 4% BSA isotonic buffered saline and equilibrated to a temperature of 37° C. by a circulating water pump. Excised human cadaver skin (~0.2 mm thickness), which is either intact or tape-stripped, is placed onto each chamber.
The test formulations containing non-radioactive Compound XIV were spiked with tritiated Compound XIV. The specific radioactivity was about 0.05 μCi/mg test formulation. Spiked formulations were applied to the skin surface. The specific radioactivity in the stratum corneum, epidermis, dermis and the reservoir were measured at 1, 3, 6 and 24 h time points by liquid scintillation counting, to investigate cumulative penetration at each time point. The specific activity is expressed as a percentage relative to the total recovery from the reservoir, skin wipes, and the respective skin layers at the end of each experiment.
Each of the five formulations were tested on intact skin (5 replicates each) and tape-stripped skin (only in one diffusion cell) to investigate cumulative penetration at 0, 1, 3, 6, and 24 hours and tissue recovery was measured at 24 hours. […]

Data set [5] can be described thus: Acute toxicity in the mouse, intraperitoneal. As for the experimental part:
Six groups containing 5 CD-1 female mice (Charles River Lab, Mass.) weighing 19-23 g were used in the experiment. Water and Agway rodent chow were provided ad libitum throughout the study. The laboratory animals were handled according to the institutional animal husbandry Standard Operating Procedures.
The solution was filtered with 0.2 μm Nalgene syringe filter and then further diluted serially with normal saline by 5-fold (0.6 ml to 3.0 ml) to 0.016 mg/ml. Group 1 animals were injected intraperitoneally (i.p.) with 10 ml/kg normal saline as negative controls. Groups 2 to 6 were given Compound XIV i.p. at 100, 20, 4, 0.8 and 0.16 mg/kg, respectively.
The LD50 of the compound was calculated by the Method of Probits (See Probit Analysis, 3rd Edition, D. J. Finney, Cambridge University Press, Cambridge, 1971). All surviving animals were sacrificed after the last observation on seventh day post-treatment.

A further data set concerns bacterial growth. The note with it: Osada and Isono 1985; cited from earlier work.

pIC50: −log10 of the molar value.

Turning to `Nc1ncnc2c1ncn2[C@@H]1O[C@H](CNS(=O)(=O)NC(=O)[C@@H](N)Cc2ccccc2)[C@@H](O)[C@H]1O` [Compound XIV, 5'-deoxy-adenosine 5'-N-(N-L-phenylalanyl)sulfamide], in data set [1], half-maximal inhibition (IC50) required 5 nM. Moreover, the pIC50 in data set [2] was 6.28. Besides, the pIC50 in data set [3] was 5.25. Besides, the “penetration of target tissue, epidermis” value in data set [4] was “penetrates the target tissue, epidermis, in significant concentration at 6 hours and levels are generally increased at 24 hours”. For the same compound, in data set [5] (i.p. 100 mg/kg (group 2)), the mortality entry is listed as “Most of the group 2 mice died between 8 to 24 hours after injection”. For the same compound, in data set [5] (mouse, in vivo, ip), the “95% confidence limit of the LD50” value was 24 to 63 mg/kg, the LD50 at 168 h amounted to 44 mg/kg and the tolerability result was “a high dose of Compound XIV was tolerated”. Moreover, in data set [5] (mouse, in vivo, ip, 20 mg/kg), the “body weight loss after injection” value is “about 10%” and the symptoms after dosing result is on record as “no unusual symptoms observed”. Moreover, in data set [5] (mouse, in vivo, ip, 100 mg/kg), the symptoms after dosing result is “showed loose hair starting at 3-4 hours after dosing and they also lost their appetite and became less active”.
With `C[C@H](N)C(=O)NS(=O)(=O)OC[C@H]1O[C@@H](n2cnc3c(N)nc(Cl)nc32)[C@H](O)[C@@H]1O` [ascamycin], in the data set on bacterial growth, the “inhibition of bacterial growth” value is “ineffective inhibitor against bacterial growth”.
